Measurements taken from patent US20250304973A1, “HIGH-AFFINITY THROMBIN APTAMERS AND METHODS OF USE” (Ayass Bioscience LLC, priority 2024, published 2025).
Entries after “also recorded” stand apart in the source; their conditions may differ.

What was measured:
human citrated plasma = experiment: Activated partial thromboplastin time (APTT) assay in human citrated plasma; format: biochemical; conditions: 2 uM, 2 h, versus untreated control
Experimental: 137. Sterile human blood in sodium citrate was purchased from the Rockland Immuno- chemicals, Inc (cat #R214-0050, Pottstown, PA 19464, USA). Plasma was prepared by centrifugation for 10 min at 2000×g. In vitro activity assays were performed on ACLTOP analyzer manufactured by Instrumentation Laboratory, which is a type of coagulation analyzer commonly used in clinical laboratories to measure clotting times and assess coagulation parameters. The ACLTOP analyzer is designed to perform a wide range of coagulation tests, including Factor II activity, prothrombin time (PT), activated partial thromboplastin time (APTT), fibrinogen, and other related assays. ACLTOP analyzer uses HemosIL reagents developed by Instrumentation Laboratory company (Bedford, MA, USA) to perform coagulation tests.
140. […] APTT time was measured using the synthetic phospholipid reagent SynthASIil for quantitative determination in human citrated plasma on an ACLTOP coagulation analyzer manufactured by Instrumentation Laboratory (Bed- ford, MA, USA).
146. Modified aptamers chemically crosslinked with TAG, PEG, and cholesterol entities at the 3′ end, were purchased from IDT (Integrated DNA Technologies, Coralville, IA, USA). The impact of modified AYA1809002 and AYA1809004 aptamers on Factor II activity, PT, and APTT was evaluated using the same protocol as was used for the unmodified aptamers. Additionally, the potential for reversal was investigated using the respective reverse complement for each aptamer.

[1] = system: human peripheral blood mononuclear cells (hPBMCs); experiment: Immunogenic reaction on human PBMCs (LEGENDplex Human Inflammation Panel); format: cell-based; conditions: for immune stimulation (secretion of inflammatory cytokines and chemokines): 1, 5, 10 uM aptamer, 24 and 72 h, versus mock or control aptamer
Experimental: 147. Human PBMCs were isolated from buffy coats provided by Carter BloodCare(Bedford, TX, USA). Isolation was carried out through density-gradient centrifugation utilizing FicollPaque Plus from GE Healthcare. The isolated human PBMCs suspended in cRPMI media were subjected to stimulation with or without the AYA1809002 and AYA1809004 aptamers and a control aptamer. Various concentrations (1, 5, and 10 uM) of these aptamers were used, along with positive control stimuli such as LPS (200 ng/mL), ODN 1826 (20 uM, Invitrogen), or a combination of LPS (100 ng/mL) and ODN 1826 (10 uM). Following incubation periods of 24 and 72 h, the cell supernatant was collected via centrifugation at 200 g for 3 min. Cytokine levels were evaluated using the LEGENDplex Human Inflammation Panel 1 from BioLegend (cat #740808, San Diego, CA, USA) following the manufacturer's protocol, soluble analytes were acquired using a Navios EX flow cytometer (Beckman Coulter Inc, Pasadena, CA USA), and subsequent analysis was performed using BioLegend's LEGENDPLEX™ system(San Diego, CA, USA).

whole human blood = experiment: Dose-dependent prothrombin time (PT) in whole blood; format: biochemical; conditions: 1, 2, 3, 4 uM; 2 h room temperature; citrated whole human blood
Experimental: 139. […] PT time was measured using RecombiPlasTin 2G for quantitative determination in human citrated plasma of PT and Fibrinogen on an ACLTOP coagulation analyzer manufactured by Instrumentation Laboratory (Bedford, MA, USA). To assess the activity of the aptamers in a dose-dependent manner in whole blood, human blood samples were collected in citrate-treated tubes. The blood samples were then incubated at room temperature for 2 h in the absence or presence of varying concentrations of the thrombin aptamers. To measure the Prothrombin Time (PT) on the ACLTOP coagulation analyzer, plasma was obtained by centrifuging the samples at 1500×g for 10 min at 4° C. For the dose dependence study, concentrations of 1 uM, 2 uM, 3 uM, and 4 uM of AYA1809002 and AYA1809004 were utilized.
156. To facilitate future applications, gaining a comprehensive understanding of the activity of aptamers in whole blood is of paramount importance. To assess their effectiveness, we tested the selected aptamers at various concentrations in whole blood to evaluate their impact on Factor II activity and PT time. Human blood samples were collected in citrate- treated tubes. The blood samples were then incubated at room temperature for 2 h in the absence or presence of varying concentrations of thrombin aptamers. […]

clot-bound thrombin = molecular target: T1, clot-bound thrombin (Homo sapiens, UniProt P00734); experiment: Clot-bound thrombin inhibition; format: biochemical; conditions: for inhibition of clot-bound thrombin: washed clots from platelet-rich plasma, fluorogenic substrate, 90 min, 37° C.
T1 construct: from tissue; host or cells: washed fibrin clots formed from platelet-rich plasma of healthy donors
Experimental: 145. For the inhibition study of clot-bound thrombin, blood samples were collected from healthy donors using citrate-treated tubes and centrifuged at 200×g for 15 min at room temperature. The resulting supernatant consisting of platelet-rich plasma (PRP) was collected and aliquots of 500 μL were transferred to microfuge tubes containing 50 μL of 300 mM CaCl2). The mixture was then incubated for 2 h at 37° C. in an incubator without agitation. The formed clots were washed ten times over the course of 16 h at room temperature; each time, 1 mL aliquots of TBS buffer (50 mM Tris-HCl, 100 mM NaCl, pH 7.4) were added to the clots with mixing. Subsequently, the washed clots were transferred to the assay plate (ThermoFisher Scientific, cat #3915, Waltham, MA, USA). […] After a 20 min incubation period with agitation, a thrombin substrate (, Thrombin substrate III, Fluorogenic, Sigma-Aldrich, cat #605211, St. Louis, MO, USA) was added to each sample at a final concentration of 200 μM. Fluorescence measurements were performed using a SYNERGY/HTX multi-mode reader (BioTek, Agilent Technologies, Santa Clara, CA 95051, USA) with the excitation/emission wavelengths set at 360/460 nm. The measurements were recorded for a total duration of 90 min at a temperature of 37° C.

AYA1809002: ssDNA thrombin aptamer GCGGTGTTGCTGGGGTTGGGAGGTTGGAGGAAGCAATCGC
increase in APTT time (human citrated plasma): approximate four-fold increase
immune stimulation (secretion of inflammatory cytokines and chemokines) [1]: do not exhibit immune-stimulating properties; also recorded: did not exhibit immune-stimulating properties
Safety: immunogenicity and side effects ([1]; Table 3): Low immunogenicity
effect on prothrombin time (PT) in whole blood (whole human blood): corresponding increase in prothrombin time; also recorded: corresponding increase in PT
level of clot-bound thrombin inhibition, comparison (clot-bound thrombin; comparison between aptamers and with dabigatran 2 μM): higher level of inhibition compared to AYA1809004
inhibition of clot-bound thrombin (clot-bound thrombin): inhibit clot-bound thrombin in a concentration-dependent manner

AYA1809004: ssDNA thrombin aptamer TCGTCAAGGTACGGTTGGGGGGGTGGGTGTTGACGTTGAA (DNA, backbone not given here)
increase in APTT time (human citrated plasma): approximate four-fold increase
immune stimulation (secretion of inflammatory cytokines and chemokines) [1]: do not exhibit immune-stimulating properties
effect on prothrombin time (PT) in whole blood (whole human blood): corresponding increase in prothrombin time
inhibition of clot-bound thrombin (clot-bound thrombin): inhibit clot-bound thrombin in a concentration-dependent manner
